Literature values, collected in patent US9987252B2, “Primary amines and derivitves thereof as modulators of the 5-HT2A serotonin receptor useful for the treatment of disorders related thereto” (Arena Pharmaceuticals, Inc., priority 2006, dated 2018).

Test system: diabetic rats
Settings: 19.8% sciatic motor conduction deficit in diabetic rats

| Structure (SMILES) | correction of sciatic motor conduction deficit |
| --- | --- |
| COc1cccc(CCc2ccccc2OCC(CN(C)C)OC(=O)CCC(=O)O)c1 (stereo not drawn) [sarpogrelate] | 82.6-99.7% |
| O=CN1CCC(C(=O)NCCN2CCC(=C3c4ccccc4C=Cc4ccccc43)CC2)CC1 [AT-1015] | 82.6-99.7% |
| Cc1nc2sccn2c(=O)c1CCN1CCC(=C(c2ccc(F)cc2)c2ccc(F)cc2)CC1 [ritanserin] | 82.6-99.7% |
